Assay results taken from US10870647B2, “Imidazopyridine derivative, method for preparing same, and pharmaceutical composition containing same as active ingredient for preventing or treating cancer” (DAEGU-GYEONGBUK MEDICAL INNOVATION FOUNDATION, priority 2016, dated 2020).

What was measured:
Assay in all cases: Cancer cell proliferation inhibition, cell viability after 72 hours
Assay type in all cases: cell-based
[1] = tested on: GIST-R1; settings: imatinib-resistant, GIST patient originated
[2] = tested on: GIST-R3; settings: imatinib/sunitinib-resistant, GIST patient originated
Procedure, shortened: (§1)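 GIST-T1/816, GIST-430 and GIST-430/654 seeded at 2×10^4/100 μl; GIST-R3 (patient-derived, imatinib/sunitinib-resistant) likewise. Compounds added next day at 8 concentrations; viability after 72 hours by EZ-cytox or CellTiter-Glo, as % of vehicle-treated cells, IC50 from curves; two independent experiments.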

[3] = tested on: GIST-T1/816; settings: Homo sapiens, GISTT1, imatinib-resistant
Procedure, shortened: as §1

[4] = tested on: GIST-T1; settings: Homo sapiens, GISTT1, imatinib-sensitive
[5] = tested on: GIST430/654; settings: GIST-430/654, imatinib-resistant
Procedure, shortened: as §1

[6] = tested on: GIST430; settings: Homo sapiens, imatinib-sensitive
Procedure, shortened: as §1

Compound: Cc1cn(-c2cc(NC(=O)c3ccc(C)c(C#Cc4cnc5c(Nc6cnn(C7CCN(C)CC7)c6)cccn45)c3)cc(C(F)(F)F)c2)cn1 [Example 76]
- IC50 [1]: 25.4 µM
- IC50 [2]: 0.328 µM
- IC50 [3]: 13.1 µM
- IC50 [4]: 0.456 µM
- IC50 [5]: 7 µM
- IC50 [6]: 0.559 µM
